Data as given in BindingDB's records for doi:10.1021/jm021108n (Ghent University, 2003).

These molecules were tested against Thymidylate kinase (Homo sapiens) (UniProt P23919) (assay: In Vitro inhibition of […] (TMPKh)).

`Cc1cn([C@H]2C[C@H](CO)[C@@H](COP(=O)(O)O)O2)c(=O)[nH]c1=O` [Phosphoric acid mono-[3-hydroxymethyl-5-(5-methyl-2,4-dioxo-3,4-dihydro-2H-pyrimidin-1-yl)-tetrahydro-furan-2-ylmethyl] ester] and `Cc1cn([C@H]2C[C@H](CF)[C@@H](COP(=O)(O)O)O2)c(=O)[nH]c1=O` [Phosphoric acid mono-[3-fluoromethyl-5-(5-methyl-2,4-dioxo-3,4-dihydro-2H-pyrimidin-1-yl)-tetrahydro-furan-2-ylmethyl] ester] are within 1.5-fold of each other in Ki: 43.5 µM for the first, 40 µM for the second.

Going from `Cc1cn([C@@H]2O[C@H](CO)[C@@H](CN)[C@H]2O)c(=O)[nH]c1=O` [1-(4-Aminomethyl-3-hydroxy-5-hydroxymethyl-tetrahydro-furan-2-yl)-5-methyl-1H-pyrimidine-2,4-dione] to `Cc1cn([C@@H]2O[C@H](COP(=O)(O)O)[C@@H](CN)[C@H]2O)c(=O)[nH]c1=O` [Phosphoric acid mono-[3-aminomethyl-4-hydroxy-5-(5-methyl-2,4-dioxo-3,4-dihydro-2H-pyrimidin-1-yl)-tetrahydro-furan-2-ylmethyl] ester], the Ki rises from 110 µM to 280 µM (2.5-fold).

Going from `Cc1cn([C@H]2C[C@H](CF)[C@@H](CO)O2)c(=O)[nH]c1=O` [1-(4-Fluoromethyl-5-hydroxymethyl-tetrahydro-furan-2-yl)-5-methyl-1H-pyrimidine-2,4-dione] to `Cc1cn([C@H]2C[C@H](CN)[C@@H](CO)O2)c(=O)[nH]c1=O` [1-(4-Aminomethyl-5-hydroxymethyl-tetrahydro-furan-2-yl)-5-methyl-1H-pyrimidine-2,4-dione], the Ki falls from 970 µM to 220 µM (4.4-fold).

Going from `Cc1cn([C@H]2C[C@H](CN)[C@@H](COP(=O)(O)O)O2)c(=O)[nH]c1=O` [Phosphoric acid mono-[3-aminomethyl-5-(5-methyl-2,4-dioxo-3,4-dihydro-2H-pyrimidin-1-yl)-tetrahydro-furan-2-ylmethyl] ester] to `Cc1cn([C@H]2C[C@H](CN=[N+]=[N-])[C@@H](COP(=O)(O)O)O2)c(=O)[nH]c1=O` [Phosphoric acid mono-[3-azidomethyl-5-(5-methyl-2,4-dioxo-3,4-dihydro-2H-pyrimidin-1-yl)-tetrahydro-furan-2-ylmethyl] ester], the Ki rises from 4.7 µM to 32 µM (6.8-fold).

Compared with `Cc1cn([C@H]2C[C@H](CN=[N+]=[N-])[C@@H](CO)O2)c(=O)[nH]c1=O` [1-(4-Azidomethyl-5-hydroxymethyl-tetrahydro-furan-2-yl)-5-methyl-1H-pyrimidine-2,4-dione], `Cc1cn([C@H]2C[C@H](CO)[C@@H](CO)O2)c(=O)[nH]c1=O` [1-(4,5-Bis-hydroxymethyl-tetrahydro-furan-2-yl)-5-methyl-1H-pyrimidine-2,4-dione] is 2.5-fold lower in Ki: 1040 µM for the first, 420 µM for the second.
